Read-outs that look alike come from different tables or passages of the source.
Assays:
[1] = in vivo; cited from earlier work
[2] = tested on: patients with heart failure and a left ventricular ejection fraction ≥40%; assay type: in vivo

CCOc1ncc(C)c2c1[C@H](c1ccc(C#N)cc1OC)C(C(N)=O)=C(C)N2 [finerenone, (4S)-4-(4-cyano-2-methoxyphenyl)-5-ethoxy-2,8-dimethyl-1,4-dihydro-1,6-naphthyridine-3-carboxamide]
active metabolites [1]: no active metabolites | Total worsening HF events: Event rate per 100 PY ([2]; bilirubin Tertile 2 0.5-0.6 mg/dL): 9.7 per 100 PY | Total worsening HF events: Event rate per 100 PY ([2]; bilirubin Tertile 3 ≥0.7 mg/dL): 12.6 per 100 PY | primary events (total worsening heart failure events and cardiovascular death), number of events ([2]; finerenone group, median 32 months): 1,083

Source: US20260272897A1 (Bayer Aktiengesellschaft, priority 2024, published 2026)
